In patent US10548317B2, “Pesticidally active pyrazole derivatives” (SYNGENTA PARTICIPATIONS AG, priority 2015, dated 2020):

Experiments:
Type in all cases: in vivo
[1] = test system: Tetranychus urticae; assay: Tetranychus urticae (two-spotted spider mite) bean leaf disc test; details: foliar, 192 h, application rate of 200 ppm, bean leaf discs, mixed population (mobile stages), 8 days after infestation
Experimental: Tetranychus urticae (Two-Spotted Spider Mite):
Bean leaf discs on agar in 24-well microtiter plates were sprayed with aqueous test solutions prepared from 10'000 ppm DMSO stock solutions. After drying the leaf discs were infested with a mite population of mixed ages. The samples were assessed for mortality on mixed population (mobile stages) 8 days after infestation.

[2] = test system: Plutella xylostella; assay: Plutella xylostella (diamond back moth) artificial diet test; details: 120 h, application rate of 200 ppm, L2 larvae, 5 days after infestation, read-out: effect in at least one of the two categories (mortality or growth inhibition)
Experimental: Plutella xylostella (Diamond Back Moth):
24-well microtiter plates with artificial diet were treated with aqueous test solutions prepared from 10'000 ppm DMSO stock solutions by pipetting. After drying, the plates were infested with L2 larvae (10 to 15 per well). The samples were assessed for mortality and growth inhibition in comparison to untreated samples 5 days after infestation. The following compounds gave an effect of at least 80% in at least one of the two categories (mortality or growth inhibition) at an application rate of 200 ppm: 1, 2, 3, 4, 5, 6, 7, 8, 9, 10, 11, 12, 13, 14, 15, 16, 17, 18, 19, 20, 21, 22, 23, 24, 25, 26, 27, 28, 29, 30, 31, 32, 33, 35, 36, 37, 38, 39, 40, 41, 42, 43, 44, 45, 46, 47, 48, 50, 51, 52, 53, 54 and 55.

[3] = test system: Euschistus heros; assay: Euschistus heros (neotropical brown stink bug) soybean leaf test; details: 120 h, application rate of 200 ppm, soybean leaves, N2 nymphs, 5 days after infestation, read-out: effect in at least one of the two categories (mortality or growth inhibition)
Experimental: Euschistus heros (Neotropical Brown Stink Bug)
Soybean leaves on agar in 24-well microtiter plates were sprayed with aqueous test solutions prepared from 10'000 ppm DMSO stock solutions. After drying the leaves were infested with N2 nymphs. The samples were assessed for mortality and growth inhibition in comparison to untreated samples 5 days after infestation. The following compounds gave an effect of at least 80% in at least one of the two categories (mortality or growth inhibition) at an application rate of 200 ppm: 3, 4, 5, 6, 9, 10, 12, 14, 15, 16, 17, 18, 20, 24, 27, 28, 29, 31, 32, 33, 36, 37, 38, 42, 43, 45, 50, 52, 53, 54 and 55.

[4] = test system: Spodoptera littoralis; assay: Spodoptera littoralis (Egyptian cotton leaf worm) leaf disc spray test; details: foliar, 72 h, application rate of 200 ppm, cotton leaf discs, L1 larvae, 3 days after infestation, read-out: control (at least one of mortality, anti-feedant effect, growth inhibition)
Experimental: Spodoptera littoralis (Egyptian Cotton Leaf Worm)
Cotton leaf discs were placed on agar in 24-well microtiter plates and sprayed with aqueous test solutions prepared from 10'000 ppm DMSO stock solutions. After drying the leaf discs were infested with five L1 larvae. The samples were assessed for mortality, anti-feedant effect, and growth inhibition in comparison to untreated samples 3 days after infestation. Control of Spodoptera littoralis by a test sample is when at least one of mortality, anti-feedant effect, and growth inhibition is higher than the untreated sample.

[5] = test system: Thrips tabaci; assay: Thrips tabaci (onion thrips) sunflower leaf disc test; details: foliar, 144 h, application rate of 200 ppm, sunflower leaf discs, mixed ages, 6 days after infestation
Experimental: Thrips tabaci (Onion thrips):
Sunflower leaf discs were placed on agar in 24-well microtiter plates and sprayed with aqueous test solutions prepared from 10'000 ppm DMSO stock solutions. After drying the leaf discs were infested with a thrips population of mixed ages. The samples were assessed for mortality 6 days after infestation.

[6] = test system: Diabrotica balteata; assay: Diabrotica balteata (corn root worm) maize sprout test; details: 96 h, application rate of 200 ppm, maize sprouts, L2 larvae, 4 days after infestation, read-out: effect in at least one of the two categories (mortality or growth inhibition)
Experimental: Diabrotica balteata, (Corn Root Worm)
Maize sprouts, placed on an agar layer in 24-well microtiter plates were treated with aqueous test solutions prepared from 10'000 ppm DMSO stock solutions by spraying. After drying, the plates were infested with L2 larvae (6 to 10 per well). The samples were assessed for mortality and growth inhibition in comparison to untreated samples 4 days after infestation. The following compounds gave an effect of at least 80% in at least one of the two categories (mortality or growth inhibition) at an application rate of 200 ppm: 1, 3, 4, 5, 6, 7, 8, 9, 10, 11, 12, 14, 15, 16, 17, 18, 19, 20, 21, 22, 23, 24, 25, 26, 27, 28, 29, 30, 31, 32, 33, 35, 36, 37, 38, 39, 40, 41, 42, 43, 44, 45, 48, 50, 51, 52, 53, 54 and 55.

Cn1nc(C(F)(F)C(F)(F)F)c(C(F)(F)F)c1-n1cc(-c2cc(C(=O)NC3(C(N)=O)CC3)c(Cl)s2)cn1 [Compound 5, N-(1-carbamoylcyclopropyl)-2-chloro-5-[1-[2-methyl-5-(1,1,2,2,2-pentafluoroethyl)-4-(trifluoromethyl)pyrazol-3-yl]pyrazol-4-yl]thiophene-3-carboxamide]
≥ 80%: mortality at 200 ppm [1] | percent effect (mortality or growth inhibition) at 200 ppm [2] | percent effect (mortality or growth inhibition) at 200 ppm [3] | control (mortality, anti-feedant effect or growth inhibition) at 200 ppm [4] | mortality at 200 ppm [5] | percent effect (mortality or growth inhibition) at 200 ppm [6]

Cn1nc(C(F)(F)C(F)(F)F)c(C(F)(F)F)c1-n1cc(-c2cc(C(=O)NC3CC3F)c(Cl)s2)cn1 (stereo not shown) [Compound 32]
≥ 80%: percent effect (mortality or growth inhibition) at 200 ppm [2] | percent effect (mortality or growth inhibition) at 200 ppm [3] | control (mortality, anti-feedant effect or growth inhibition) at 200 ppm [4] | mortality at 200 ppm [5] | percent effect (mortality or growth inhibition) at 200 ppm [6]

C=C(F)CNC(=O)c1cc(-c2cnn(-c3c(C(F)(F)F)c(C(F)(F)C(F)(F)F)nn3C)c2)sc1Cl [Compound 24]
≥ 80%: percent effect (mortality or growth inhibition) at 200 ppm [2] | percent effect (mortality or growth inhibition) at 200 ppm [3] | control (mortality, anti-feedant effect or growth inhibition) at 200 ppm [4] | mortality at 200 ppm [5] | percent effect (mortality or growth inhibition) at 200 ppm [6]

CN(C(=O)c1cc(-c2cnn(-c3c(C(F)(F)F)c(C(F)(F)C(F)(F)F)nn3C)c2)sc1Cl)C1(C#N)CC1 [Compound 9]
≥ 80%: mortality at 200 ppm [1] | percent effect (mortality or growth inhibition) at 200 ppm [2] | percent effect (mortality or growth inhibition) at 200 ppm [3] | control (mortality, anti-feedant effect or growth inhibition) at 200 ppm [4] | mortality at 200 ppm [5] | percent effect (mortality or growth inhibition) at 200 ppm [6]

Cn1nc(C(F)(F)C(F)(F)F)c(C(F)(F)F)c1-n1cc(-c2cc(C(=O)NCC=C(Cl)Cl)c(Cl)s2)cn1 [Compound 28]
≥ 80%: mortality at 200 ppm [1] | percent effect (mortality or growth inhibition) at 200 ppm [2] | percent effect (mortality or growth inhibition) at 200 ppm [3] | control (mortality, anti-feedant effect or growth inhibition) at 200 ppm [4] | percent effect (mortality or growth inhibition) at 200 ppm [6]

Cn1nc(OC(F)(F)C(F)C(F)(F)F)c(C(F)(F)F)c1-n1cc(-c2cc(C(=O)NC3CC3)c(Cl)s2)cn1 (stereo not shown) [Compound 53]
≥ 80%: percent effect (mortality or growth inhibition) at 200 ppm [2] | percent effect (mortality or growth inhibition) at 200 ppm [3] | control (mortality, anti-feedant effect or growth inhibition) at 200 ppm [4] | percent effect (mortality or growth inhibition) at 200 ppm [6]

Cn1nc(C(F)(F)C(F)(F)F)c(C(F)(F)F)c1-n1cc(-c2cc(C(=O)NC3(C(N)=S)CC3)c(Cl)s2)cn1 [Compound 6, N-(1-carbamothioylcyclopropyl)-2-chloro-5-[1-[2-methyl-5-(1,1,2,2,2-pentafluoroethyl)-4-(trifluoromethyl)pyrazol-3-yl]pyrazol-4-yl]thiophene-3-carboxamide]
≥ 80%: mortality at 200 ppm [1] | percent effect (mortality or growth inhibition) at 200 ppm [2] | percent effect (mortality or growth inhibition) at 200 ppm [3] | control (mortality, anti-feedant effect or growth inhibition) at 200 ppm [4] | mortality at 200 ppm [5] | percent effect (mortality or growth inhibition) at 200 ppm [6]

Cn1nc(C(F)(F)C(F)(F)F)c(C(F)(F)F)c1-n1cc(-c2cc(C(N)=O)c(Cl)s2)cn1 [Compound 16]
≥ 80%: percent effect (mortality or growth inhibition) at 200 ppm [2] | percent effect (mortality or growth inhibition) at 200 ppm [3] | control (mortality, anti-feedant effect or growth inhibition) at 200 ppm [4] | mortality at 200 ppm [5] | percent effect (mortality or growth inhibition) at 200 ppm [6]

CCN(C(=O)c1cc(-c2cnn(-c3c(C(F)(F)F)c(C(F)(F)C(F)(F)F)nn3C)c2)sc1Cl)C1(C#N)CC1 [Compound 10]
≥ 80%: mortality at 200 ppm [1] | percent effect (mortality or growth inhibition) at 200 ppm [2] | percent effect (mortality or growth inhibition) at 200 ppm [3] | control (mortality, anti-feedant effect or growth inhibition) at 200 ppm [4] | mortality at 200 ppm [5] | percent effect (mortality or growth inhibition) at 200 ppm [6]

Cn1nc(C(F)(F)C(F)(F)F)c(C(F)(F)F)c1-n1cc(-n2cc(C(=O)NC3CC3)c(C(F)(F)F)c2)cn1 [Compound 45]
≥ 80%: percent effect (mortality or growth inhibition) at 200 ppm [2] | percent effect (mortality or growth inhibition) at 200 ppm [3] | control (mortality, anti-feedant effect or growth inhibition) at 200 ppm [4] | mortality at 200 ppm [5] | percent effect (mortality or growth inhibition) at 200 ppm [6]

Cn1nc(C(F)(F)C(F)(F)F)c(C(F)(F)F)c1-n1cc(-c2cc(C(=O)NC3CC3)c(Cl)s2)cn1 [Compound 3, 2-chloro-N-cyclopropyl-5-[1-[2-methyl-5-(1,1,2,2,2-pentafluoroethyl)-4-(trifluoromethyl)pyrazol-3-yl]pyrazol-4-yl]thiophene-3-carboxamide]
≥ 80%: mortality at 200 ppm [1] | percent effect (mortality or growth inhibition) at 200 ppm [2] | percent effect (mortality or growth inhibition) at 200 ppm [3] | control (mortality, anti-feedant effect or growth inhibition) at 200 ppm [4] | mortality at 200 ppm [5] | percent effect (mortality or growth inhibition) at 200 ppm [6]

Cn1nc(C(F)(F)C(F)(F)F)c(OC(F)F)c1-n1cc(-c2cc(C(=O)NC3CC3)c(Cl)s2)cn1 [Compound 37]
≥ 80%: mortality at 200 ppm [1] | percent effect (mortality or growth inhibition) at 200 ppm [2] | percent effect (mortality or growth inhibition) at 200 ppm [3] | control (mortality, anti-feedant effect or growth inhibition) at 200 ppm [4] | mortality at 200 ppm [5] | percent effect (mortality or growth inhibition) at 200 ppm [6]

Cn1nc(OC(F)(F)C(F)OC(F)(F)F)c(C(F)(F)F)c1-n1cc(-c2cc(C(=O)NC3(C#N)CC3)c(Cl)s2)cn1 (stereo not shown) [Compound 54]
≥ 80%: percent effect (mortality or growth inhibition) at 200 ppm [2] | percent effect (mortality or growth inhibition) at 200 ppm [3] | control (mortality, anti-feedant effect or growth inhibition) at 200 ppm [4] | percent effect (mortality or growth inhibition) at 200 ppm [6]

CNC(=O)c1cc(-c2cnn(-c3c(C(F)(F)F)c(C(F)(F)C(F)(F)F)nn3C)c2)sc1Cl [Compound 18]
≥ 80%: percent effect (mortality or growth inhibition) at 200 ppm [2] | percent effect (mortality or growth inhibition) at 200 ppm [3] | control (mortality, anti-feedant effect or growth inhibition) at 200 ppm [4] | mortality at 200 ppm [5] | percent effect (mortality or growth inhibition) at 200 ppm [6]

Cn1nc(C(F)(F)C(F)(F)F)c(C(F)(F)F)c1-n1cc(-c2cc(C(=O)NCC(F)(F)F)c(Cl)s2)cn1 [Compound 14]
≥ 80%: percent effect (mortality or growth inhibition) at 200 ppm [2] | percent effect (mortality or growth inhibition) at 200 ppm [3] | control (mortality, anti-feedant effect or growth inhibition) at 200 ppm [4] | mortality at 200 ppm [5] | percent effect (mortality or growth inhibition) at 200 ppm [6]

Cn1nc(C(F)(F)C(F)(F)F)c(C(F)(F)F)c1-n1cc(-c2cc(C(=O)NC3(c4ccccn4)CC3)c(Cl)s2)cn1 [Compound 15]
≥ 80%: mortality at 200 ppm [1] | percent effect (mortality or growth inhibition) at 200 ppm [2] | percent effect (mortality or growth inhibition) at 200 ppm [3] | control (mortality, anti-feedant effect or growth inhibition) at 200 ppm [4] | percent effect (mortality or growth inhibition) at 200 ppm [6]

Cn1nc(OC(F)(F)C(F)C(F)(F)F)c(C(F)(F)F)c1-n1cc(-c2cc(C(=O)NC3(C#N)CC3)c(Cl)s2)cn1 (stereo not shown) [Compound 52]
≥ 80%: percent effect (mortality or growth inhibition) at 200 ppm [2] | percent effect (mortality or growth inhibition) at 200 ppm [3] | control (mortality, anti-feedant effect or growth inhibition) at 200 ppm [4] | percent effect (mortality or growth inhibition) at 200 ppm [6]
